From US5972953A, “Brain cell protective agent” (priority 1993, dated 1999)
Read-outs that look alike come from different tables or passages of the source.

Test system: cultured nerve cells (cerebral cortex)
Assay: cells
Assay type: cell-based, Wistar rat
Settings: Rattus norvegicus, Cerebral cortex neuron
[1] = 10 mM glutamate, 24 hours at 37° C., LDH leakage, read-out: ED50 (the source's name)

`CN(C(=S)NCc1ccccc1)[C@H]1CC[C@@]2(O)[C@H]3Cc4ccc(O)c5c4[C@@]2(CCN3CC2CC2)[C@H]1O5` [Compound 105, 17-cyclopropylmethyl-3,14β-dihydroxy-4,5α-epoxy-6α-(N-methyl-N'-benzylthioureido)morphinan] was tested, and the EC50 [1] was 20600 nM.
`O=C(CCCCCc1ccccc1)N(CC(c1ccccc1)c1ccccc1)[C@@H]1CC[C@@]2(O)[C@H]3Cc4ccc(O)c5c4[C@@]2(CCN3CC2CC2)[C@H]1O5` [Compound 74, 17-cyclopropylmethyl-3,14β-dihydroxy-4,5α-epoxy-6β-[N-(2,2-diphenylethyl)-6-phenylhexanoamido)morphinan] showed an EC50 [1] of 220 nM.
With `CN(C(=O)/C=C/c1ccc(C(F)(F)F)cc1)[C@@H]1CC[C@@]2(O)[C@H]3Cc4ccc(O)c5c4[C@@]2(CCN3CC2CC2)[C@H]1O5` [Compound 56, 17-cyclopropylmethyl-3,14β-dihydroxy-4,5α-epoxy-6β-(N-methyl-4-trifluoromethylcinnamamido)morphinan] the EC50 [1] was 1080 nM.
`CCN(C(=O)/C=C/c1cccc(C(F)(F)F)c1)[C@@H]1CC[C@@]2(O)[C@H]3Cc4ccc(O)c5c4[C@@]2(CCN3CC2CC2)[C@H]1O5` [Compound 63, 17-cyclopropylmethyl-3,14β-dihydroxy-4,5α-epoxy-6β-(N-ethyl-3-trifluoromethylcinnamarido)morphinan] showed an EC50 [1] of 1250 nM.
For `CC(C)CN(Cc1ccccc1)[C@@H]1CC[C@@]2(O)[C@H]3Cc4ccc(O)c5c4[C@@]2(CCN3CC2CC2)[C@H]1O5` [Compound 7, 17-cyclopropylmethyl-3,14β-dihydroxy-4,5α-epoxy-6β-(N-isobutylbenzylamino)morphinan], the EC50 [1] was 320 nM.
`CC(=O)O[C@@]12CC[C@@H](N(C)C(=O)/C=C/c3ccccc3)[C@@H]3Oc4c(O)ccc5c4[C@@]31CCN(CC1CC1)[C@@H]2C5` [Compound 115, 17-cyclopropylmethyl-3-hydroxy-14β-acetoxy-4,5α-epoxy-6β-(N-methylcinnamamido)morphinan] gave an EC50 [1] of 5410 nM.
Work on `CN(C(=O)CCC1CCCC1)[C@@H]1CC[C@@]2(O)[C@H]3Cc4ccc(O)c5c4[C@@]2(CCN3CC2CC2)[C@H]1O5` [Compound 51, 17-cyclopropylmethyl-3,14β-dihydroxy-4,5α-epoxy-6β-(N-methyl-3-cyclopentylpropioamido)morphinan] yielded an EC50 [1] of 13600 nM.
Work on `Oc1ccc2c3c1O[C@H]1[C@H](N(Cc4ccccc4)CC(c4ccccc4)c4ccccc4)CC[C@@]4(O)[C@@H](C2)N(CC2CC2)CC[C@]314` [Compound 14, 17-cyclopropylmethyl-3,14β-dihydroxy-4,5α-epoxy-6β-[N-(2,2-diphenylethyl)benzylamino)morphinan] yielded an EC50 [1] of 110 nM.
`Oc1ccc2c3c1O[C@H]1[C@H](N(Cc4ccccc4)CC4CCCCC4)CC[C@@]4(O)[C@@H](C2)N(CC2CC2)CC[C@]314` [Compound 11, 17-cyclopropylmethyl-3,14β-dihydroxy-4,5α-epoxy-6β-[N-(cyclohexylmethyl)benzylamino]morphinan] showed an EC50 [1] of 170 nM.
Compound `CCCCCC(=O)N(C)[C@@H]1CC[C@@]2(O)[C@H]3Cc4ccc(O)c5c4[C@@]2(CCN3CC2CC2)[C@H]1O5` [Compound 49, 17-cyclopropylmethyl-3,14β-dihydroxy-4,5α-epoxy-6β-(N-methylhexanoamido)morphinan] has an EC50 [1] of 29900 nM.
With `O=C(/C=C/c1cccc(C(F)(F)F)c1)N(CCc1ccccc1)[C@@H]1CC[C@@]2(O)[C@H]3Cc4ccc(O)c5c4[C@@]2(CCN3CC2CC2)[C@H]1O5` [Compound 67, 17-cyclopropylmethyl-3,14β-dihydroxy-4,5α-epoxy-6β-[N-(2-phenethyl)-3-trifluoromethylcinnamamido]morphinan] the EC50 [1] was 100 nM.
Compound `Oc1ccc2c3c1O[C@H]1[C@H](N(CCc4ccccc4)Cc4ccccc4)CC[C@@]4(O)[C@@H](C2)N(CC2CC2)CC[C@]314` [Compound 10, 17-cyclopropylmethyl-3,14β-dihydroxy-4,5α-epoxy-6β-(N-2-phenethylbenzylamino)morphinan] has an EC50 [1] of 280 nM.
For `CN(C(=O)/C=C/c1ccco1)[C@@H]1CC[C@@]2(O)[C@H]3Cc4ccc(O)c5c4[C@@]2(CCN3CC2CC2)[C@H]1O5` (relative stereo) [Compound 53, 17-cyclopropylmethyl-3,14β-dihydroxy-4,5α-epoxy-6β-[N-methyl-trans-3-(2-furyl)acrylamido]morphinan], the EC50 [1] was 18200 nM.
`CN(C(=S)NCc1ccccc1)[C@@H]1CC[C@@]2(O)[C@H]3Cc4ccc(O)c5c4[C@@]2(CCN3CC2CC2)[C@H]1O5` [Compound 106, 17-cyclopropylmethyl-3,14β-dihydroxy-4,5α-epoxy-6β-(N-methyl-N'-benzylthioureido)morphinan] showed an EC50 [1] of 10900 nM.
With `CC(C)CN(C(=O)CCCCC1CCCCC1)[C@@H]1CC[C@@]2(O)[C@H]3Cc4ccc(O)c5c4[C@@]2(CCN3CC2CC2)[C@H]1O5` [Compound 62, 17-cyclopropylmethyl-3,14β-dihydroxy-4,5α-epoxy-6β-(N-isobutyl-5-cyclohexylpentanoamido)morphinan] the EC50 [1] was 140 nM.
Work on `CCCCOC(=O)N(C)[C@@H]1CC[C@@]2(O)[C@H]3Cc4ccc(O)c5c4[C@@]2(CCN3CC2CC2)[C@H]1O5` [Compound 48, 17-cyclopropylmethyl-3,14β-dihydroxy-4,5α-epoxy-6β-(N-methylbutyroxycarbamido)morphinan] yielded an EC50 [1] of 7040 nM.
`COCCOC(=O)N(C)[C@H]1CC[C@@]2(O)[C@H]3Cc4ccc(O)c5c4[C@@]2(CCN3CC2CC2)[C@H]1O5` [Compound 100, 17-cyclopropylmethyl-3,14β-dihydroxy-4,5α-epoxy-6α-(N-methyl-2-methoxyethoxycarbamido)morphinan] gave an EC50 [1] of 38800 nM.
`CN(C(=O)Nc1ccc(Cl)c(Cl)c1)[C@H]1CC[C@@]2(O)[C@H]3Cc4ccc(O)c5c4[C@@]2(CCN3CC2CC2)[C@H]1O5` [Compound 103, 17-Cyclopropylmethyl-3,14β-dihydroxy-4,5α-epoxy-6α-[N-methyl-N'-(3,4-dichlorophenyl)ureido]morphinan] was tested, and the EC50 [1] was 540 nM.
Compound `CC(C)CN(C(=O)CCCCCc1ccccc1)[C@@H]1CC[C@@]2(O)[C@H]3Cc4ccc(O)c5c4[C@@]2(CCN3CC2CC2)[C@H]1O5` [Compound 58, 17-cyclopropylmethyl-3,14β-dihydroxy-4,5α-epoxy-6β-(N-isobutyl-6-phenylhexanoamido)morphinan] has an EC50 [1] of 100 nM.
`CC(C)CN(C(=O)/C=C/c1cccc(C(F)(F)F)c1)[C@@H]1CC[C@@]2(O)[C@H]3Cc4ccc(O)c5c4[C@@]2(CCN3CC2CC2)[C@H]1O5` [Compound 65, 17-cyclopropylmethyl-3,14β-dihydroxy-4,5α-epoxy-6β-(N-isobutyl-3-trifluoromethylcinnamamido)morphinan] showed an EC50 (24 h, read-out: ED50) of 310 nM.
`COc1cccc(/C=C/C(=O)N(C)[C@@H]2CC[C@@]3(O)[C@H]4Cc5ccc(O)c6c5[C@@]3(CCN4CC3CC3)[C@H]2O6)c1` [Compound 50, 17-cyclopropylmethyl-3,14β-dihydroxy-4,5α-epoxy-6β-(N-methyl-3-methoxycinnamamido)morphinan] was tested, and the EC50 [1] was 3440 nM.
In the case of `CCCCCN(C(=O)CCCCCc1ccccc1)[C@@H]1CC[C@@]2(O)[C@H]3Cc4ccc(O)c5c4[C@@]2(CCN3CC2CC2)[C@H]1O5` [Compound 70, 17-cyclopropylmethyl-3,14β-dihydroxy-4,5α-epoxy-6β-(N-pentyl-6-phenylhexanoamido)morphinan], the EC50 [1] is reported as 190 nM.
`CCN(Cc1ccccc1)[C@@H]1CC[C@@]2(O)[C@H]3Cc4ccc(O)c5c4[C@@]2(CCN3CC2CC2)[C@H]1O5` [Compound 5, 17-cyclopropylmethyl-3,14β-dihydroxy-4,5α-epoxy-6β-(N-ethylbenzylamino)morphinan] showed an EC50 [1] of 24600 nM.
Compound `C=CCN1CC[C@]23c4c5ccc(O)c4O[C@H]2[C@H](N(C)C(=O)Cc2ccc(Cl)c(Cl)c2)CC[C@@]3(O)[C@H]1C5` [Compound 93, 17-allyl-3,14β-dihydroxy-4,5α-epoxy-6β-(N-methyl-3,4-dichlorophenylacetoamido)morphinan] has an EC50 [1] of 1500 nM.
In the case of `CN(C(=O)Cc1c(F)c(F)c(F)c(F)c1F)[C@@H]1CC[C@@]2(O)[C@H]3Cc4ccc(O)c5c4[C@@]2(CCN3CC2CC2)[C@H]1O5` [Compound 89, 17-cyclopropylmethyl-3,14β-dihydroxy-4,5α-epoxy-6β-(N-methyl-2,3,4,5,6-pentafluorophenylacetoamido)morphinan], the EC50 [1] is reported as 6280 nM.
`CN(C(=O)C1CCCCC1)[C@H]1CC[C@@]2(O)[C@H]3Cc4ccc(O)c5c4[C@@]2(CCN3CC2CC2)[C@H]1O5` [Compound 31, 17-cyclopropylmethyl-3,14β-dihydroxy-4,5α-epoxy-6α-(N-methylcyclohexylcarboxamido)morphinan] showed an EC50 [1] of 2530 nM.
In the case of `CCCCCN(Cc1ccccc1)[C@@H]1CC[C@@]2(O)[C@H]3Cc4ccc(O)c5c4[C@@]2(CCN3CC2CC2)[C@H]1O5` [Compound 9, 17-cyclopropylmethyl-3,14β-dihydroxy-4,5α-epoxy-6β-(N-pentylbenzylamino)morphinan], the EC50 [1] is reported as 290 nM.
`CN(C(=O)CC(=O)c1ccccc1)[C@@H]1CC[C@@]2(O)[C@H]3Cc4ccc(O)c5c4[C@@]2(CCN3CC2CC2)[C@H]1O5` [Compound 80, 17-cyclopropylmethyl-3,14β-dihydroxy-4,5α-epoxy-6β-(N-methylbenzoylacetoamido) morphinan] showed an EC50 [1] of 7390 nM.
Work on `O=C(CCCCCc1ccccc1)N(CCCc1ccccc1)[C@@H]1CC[C@@]2(O)[C@H]3Cc4ccc(O)c5c4[C@@]2(CCN3CC2CC2)[C@H]1O5` [Compound 72, 17-cyclopropylmethyl-3,14β-dihydroxy-4,5α-epoxy-6β-[N-(3-phenylpropyl)-6-phenylhexanoamido)morphinan] yielded an EC50 [1] of 110 nM.
In the case of `CN(C(=O)/C=C/c1cccc(N=C=S)c1)[C@@H]1CC[C@@]2(O)[C@H]3Cc4ccc(O)c5c4[C@@]2(CCN3CC2CC2)[C@H]1O5` [Compound 117, 17-cyclopropylmethyl-3,14β-dihydroxy-4,5α-epoxy-6β-(N-methyl-3-isothiocyanatocinnamamido)morphinan], the EC50 [1] is reported as 9570 nM.
With `CC(C)CN(CCCCCCc1ccccc1)[C@H]1CC[C@@]2(O)[C@H]3Cc4ccc(O)c5c4[C@@]2(CCN3CC2CC2)[C@H]1O5` [Compound 97, 17-cyclopropylmethyl-3,14β-dihydroxy-4,5α-epoxy-6α-(N-isobutyl-6-phenylhexylamino)morphinan] the EC50 [1] was 160 nM.
